Reference: patent US20130040882A1, “USE OF FIBROBLAST GROWTH FACTOR FRAGMENTS” (NOVARTIS AG, priority 2003, published 2013)
Like-named read-outs stand apart in the source and are kept apart here.

Test system: transcript levels in tissues (GH/IGF and glucagon/insulin axes, SSTR signalling)
Type: in vivo, cynomolgus monkeys

Substance: cyclo[4-(NH2—C2H4—NH—CO—O)Pro-Phg-DTrp-Lys-Tyr(4-Bzl)-Phe] [SOM230]
- Calcium/calmodulin-dependent protein kinase (CaM kinase) II β expression ↑ (fold change) (spleen): II β ↑ x2
- Calmodulin 1 (phosphorylase kinase, δ) expression ↑ (fold change) (spleen): kinase, δ) ↑ x2
- Calmodulin 2 (phosphorylase kinase, δ) expression ↑ (fold change) (spleen): kinase, δ) ↑ x1.5
- Caspase 8, apoptosis-related cysteine protease expression ↑ (fold change) (spleen): ↑ x2.5
- Cdk 2 expression ↑ (fold change) (spleen): Cdk 2 ↑ x1.5
- Cdk 5, regulatory subunit 1 (p35) expression ↑ (fold change) (spleen): 1 (p35) ↑ x2
- Cdk 6 expression ↑ (fold change) (spleen): Cdk 6 ↑ x3
- Cyclin D2 expression ↑ (fold change) (spleen): x1.5
- Cyclin I expression ↓ (fold change) (spleen): Cyclin I ↓ x1.5
- Death-associated protein expression ↑ (fold change) (spleen): protein ↑ x1.5
- Dopamine receptor D4 expression ↓ (fold change) (spleen): receptor D4 ↓ x2
- EGF (β-urogastrone) expression ↓ (fold change) (spleen): urogastrone) ↓ x2
- Follistatin-like 1 expression ↑ (fold change) (spleen): ↑ x1.5
- Gastric inhibitory polypeptide receptor expression ↑ (fold change) (spleen): ↑ x2
- Gene expression (AvgDiff): IGF-1 (spleen): 85
- Gene expression (AvgDiff): IGFBP6 (spleen): 1,043
- Gene expression (AvgDiff): SSTR2 (spleen): 93
- HGF activator inhibitor precursor expression ↑ (fold change) (spleen): x1.5
- IFN regulatory factor 2 expression ↑ (fold change) (spleen): factor 2 ↑ x3.5
- IFN-inducible RNA-dependent protein kinase expression ↑ (fold change) (spleen): ↑ x2.5
- IFNγ receptor 2 (IFNγ transducer 1) expression ↑ (fold change) (spleen): x1.5
- IFNγ responsive transcript expression ↑ (fold change) (spleen): ↑ x2
- IGF-1 expression ↑ (fold change) (spleen): IGF-1 ↑ x1.5
- IGFBP6 expression ↑ (fold change) (spleen): IGFBP6 ↑ x2.5
- IL 1 receptor-like 1 expression ↑ (fold change) (spleen): 1 ↑ x2
- IL-8 receptor type B expression ↑ (fold change) (spleen): B ↑ x1.5
- IP-4-phosphatase, type 1, isoform b expression ↑ (fold change) (spleen): ↑ x2
- K+ large conductance Ca++-activated channel, subfamily M, β member 1 expression ↑ (fold change) (spleen): ↑ x2.5
- K+ voltage-gated channel, shaker-related subfamily, member 3 expression ↓ (fold change) (spleen): member 3 ↓ x3
- LTb4 (chemokine rceptor-like 1) expression ↑ (fold change) (spleen): rceptor-like 1) ↑ x3
- Nuclear factor of activated T-cells, cytoplasmic, calcineurin-dependent 1 expression ↓ (fold change) (spleen): dependent 1 ↓ x5
- PDGF, α polypeptide expression ↑ (fold change) (spleen): polypeptide ↑ x2.5
- PDGFR, α polypeptide expression ↑ (fold change) (spleen): polypeptide ↑ x1.5
- PI-3-kinase, catalytic, α polypeptide expression ↓ (fold change) (spleen): polypeptide ↓ x2.5
- PI-3-kinase, class 2, β polypeptide expression ↑ (fold change) (spleen): ↑ x1.5
- PI-3-kinase, class 3 expression ↑ (fold change) (spleen): 3 ↑ x2
- PKC, α binding protein expression ↑ (fold change) (spleen): protein ↑ x2
- PLA2 expression ↑ (fold change) (spleen): PLA2 ↑ x2
- PTHR 1 expression ↓ (fold change) (spleen): PTHR 1 ↓ x2.5
- Phosphatidyl inositol glycan, class B expression ↑ (fold change) (spleen): B ↑ x1.5
- Programmed cell death 10 expression ↑ (fold change) (spleen): death 10 ↑ x1.5
- Putative chemokine receptor; GTP-binding protein expression ↑ (fold change) (spleen): ↑ x2.5
- Rb binding protein expression ↑ (fold change) (spleen): ↑ x2
- Rb-binding protein 8 expression ↑ (fold change) (spleen): 8 ↑ x1.5
- S-phase kinase-associated protein 1A (p19A) expression ↑ (fold change) (spleen): 1A (p19A) ↑ x2
- SSTR2 expression ↑ (fold change) (spleen): SSTR2 ↑ x2
- Solute carrier family 9 (Na+/H+ exchanger) isoform 3 regulatory factor 1 expression ↑ (fold change) (spleen): ↑ x10.5
- TGF induced protein expression ↑ (fold change) (spleen): protein ↑ x1.5
- TGFβ receptor III (betaglycan, 300 kD) expression ↓ (fold change) (spleen): ↓ x1.5
- TNF (cachectin) expression ↑ (fold change) (spleen): ↑ x2
- TNF (ligand) superfamily, member 13 expression ↑ (fold change) (spleen): member 13 ↑ x2.5
- TNFR superfamily, member 12 expression ↑ (fold change) (spleen): member 12 ↑ x1.5
- Tumour protein p53-binding protein expression ↑ (fold change) (spleen): ↑ x1.5
- VEGF expression ↑ (fold change) (spleen): VEGF ↑ x1.5
- Vasodilatator-stimulated phosphoprotein expression ↑ (fold change) (spleen): phosphoprotein ↑ x2
- β adrenergic receptor kinase 1 expression ↑ (fold change) (spleen): kinase 1 ↑ x3
- S-phase kinase-associated protein 1A expression ↑ (fold change) (spleen, second entry, without (p19A)): 1A ↑ x2
- ATPase, Ca++ transporting, cardiac muscle, fast twitch 1 expression ↓ (fold change) (thyroid): ↓ x4.5
- Adenylate cyclase activating polypeptide precursor expression ↓ (fold change) (thyroid): x1.5
- Adrenergic, α-2C-, receptor expression ↓ (fold change) (thyroid): ↓ x2.5
- Bcl-2 binding component 3 expression ↓ (fold change) (thyroid): ↓ x2
- Brain cannabinoid receptor 1 expression ↓ (fold change) (thyroid): ↓ x2
- CD2 antigen (cytoplasmic tail)-binding protein 2 expression ↑ (fold change) (thyroid): ↑ x3.5
- CD2 antigen (p50), sheep red blood cell receptor expression ↓ (fold change) (thyroid): ↓ x7.5
- COL1A1 and PDGFB fusion transcript expression ↓ (fold change) (thyroid): transcript ↓ x6
- Cadherin 13, H-cadherin (heart) expression ↑ (fold change) (thyroid): ↑ x2
- Calcium/calmodulin dependent protein kinase 1 expression ↓ (fold change) (thyroid): ↓ x2
- Calcium/calmodulin-dependent PK IV expression ↓ (fold change) (thyroid): IV ↓ x7.5
- Calmodulin-dependent PK IV (CaM-kinase IV) expression ↓ (fold change) (thyroid): IV) ↓ x7.5
- Cannabinoid receptor 2 (macrophage) expression ↑ (fold change) (thyroid): ↑ x3
- Cdc-like 5 (cholinesterase-related cell division controller) expression ↓ (fold change) (thyroid): x2
- Cdk 5, regulatory subunit 1 (p35) expression ↓ (fold change) (thyroid): subunit 1 (p35) ↓ x5
- Cdk (CDC2-like) expression ↓ (fold change) (thyroid): Cdk (CDC2-like) ↓ x9
- Chemokine (C-X-C motif), receptor 4 (fusin) expression ↓ (fold change) (thyroid): ↓ x3
- Chole-cystokinin B receptor expression ↓ (fold change) (thyroid): receptor ↓ x3
- Cyclin B2 expression ↓ (fold change) (thyroid): Cyclin B2 ↓ x2.5
- DAG 1 kinase, α (80 kD) expression ↓ (fold change) (thyroid): (80 kD) ↓ x4
- Egf-like module containing, mucin-like, hormone receptor-like sequence 1 expression ↓ (fold change) (thyroid): sequence 1 ↓ x5
- FKBP-associated protein expression ↓ (fold change) (thyroid): protein ↓ x2.5
- Flt3 ligand expression ↓ (fold change) (thyroid): Flt3 ligand ↓ x4.5
- Fms-related tyrosine kinase 1(VEGF/vascular permeability factor receptor) expression ↓ (fold change) (thyroid): ↓ x2
- GABA (A) receptor, γ2 precursor expression ↓ (fold change) (thyroid): ↓ x1.5
- GABA (B) receptor 1, isoform a precursor expression ↑ (fold change) (thyroid): ↑ x2.5
- Gastric inhibitory polypeptide 1 receptor expression ↓ (fold change) (thyroid): receptor ↓ x2
- Gene expression (AvgDiff): IGF-1 (thyroid): 58
- Glutamate receptor, metabotropic 2 precursor expression ↓ (fold change) (thyroid): precursor ↓ 3.5
- Growth arrest-specific 1 expression ↓ (fold change) (thyroid): 1 ↓ x2.5
- IFNα-inducible protein 27 expression ↑ (fold change) (thyroid): 27 ↑ x3
- IFNγ responsive transcript expression ↓ (fold change) (thyroid): ↓ x1.5
- IFNγ-inducible protein 30 expression ↑ (fold change) (thyroid): protein 30 ↑ x3.5
- IGF-1 expression ↓ (fold change) (thyroid): IGF-1 ↓ x1.5
- IL2-inducible T-cell kinase expression ↓ (fold change) (thyroid): ↓ x12
- IL9 receptor expression ↓ (fold change) (thyroid): IL9 receptor ↓ x2
- IP3 receptor type 3 expression ↓ (fold change) (thyroid): type 3 ↓ x1.5
- K+ voltage-gated channel, shaker-related subfamily, member 3 expression ↓ (fold change) (thyroid): ↓ x4.5
- LTB4 receptor (chemokine receptor-like 1) expression ↓ (fold change) (thyroid): ↓ x1.5
- Lymphocyte specific protein tyrosine kinase expression ↓ (fold change) (thyroid): ↓ x4
- P56lck expression ↓ (fold change) (thyroid): P56lck ↓ x18
- PDGF-associated Protein expression ↑ (fold change) (thyroid): Protein ↑ x2
- PDGFR α expression ↓ (fold change) (thyroid): ↓ x3
- PDGFR β expression ↑ (fold change) (thyroid): ↑ x2
- PIP 5-phosphatase type IV expression ↓ (fold change) (thyroid): type IV ↓ x3
- PLC, γ1 (formerly subtype 148) expression ↓ (fold change) (thyroid): ↓ x2
- Phosphatidyl ethanolamine N-methyltransferase expression ↑ (fold change) (thyroid): ↑ x2
- Pro-platelet basic protein (includes platelet basic protein, β-thromboglobulin, connective tissue-activating peptide III, neu) 2 expression ↑ (fold change) (thyroid): 2 ↑ x3.5
- RAG1 expression ↓ (fold change) (thyroid): RAG1 ↓ x18
- RAG2 expression ↓ (fold change) (thyroid): RAG2 ↓ x5
- RANTES expression ↑ (fold change) (thyroid): RANTES ↑ x10.5
- SH2 domain protein 1A, Duncan's disease (lymphoproliferative syndrome) expression ↓ (fold change) (thyroid): ↓ x7.5
- Signalling lymphocytic activation molecule expression ↓ (fold change) (thyroid): ↓ x4.5
- Solute carrier family 21 (PG transporter), member 2 expression ↑ (fold change) (thyroid): member 2 ↑ x2
- TCR ζ chain precursor expression ↓ (fold change) (thyroid): ↓ x5.5
- TNF (ligand) superfamily, member 10 expression ↑ (fold change) (thyroid): ↑ x2
- TSHR expression ↓ (fold change) (thyroid): TSHR ↓ x2
- Thrombospondin 2 expression ↑ (fold change) (thyroid): 2 ↑ x2
- Transcription factor 7 (T-cell specific, HMG-box) expression ↓ (fold change) (thyroid): box) ↓ x16.5
- VWF precursor expression ↑ (fold change) (thyroid): precursor ↑ x2
- c-AMP responsive element binding protein 1 expression ↓ (fold change) (thyroid): protein 1 ↓ x2
- Endothelial differentiation-related factor 1 expression, direction of change (thyroid, arrow only, factor not given): related factor 1 ↑
